These are literature values, as cited in publication PMC10268011 (ACS Omega, 2023).

SMILES strings stand for the structures.

Take `COc1ccc(COc2ccc(Cc3cnc(N)nc3N)cc2OC)cc1` [GW2580, 5-(3-Methoxy-4-((4-Methoxybenzyl)Oxy)Benzyl)Pyrimidine-2,4-Diamine]: the systemic bioavailability entry is on record as “high systemic bioavailability”.
